Data as given in PMC11695965 (Nature Communications, 2025).
Where two headings read alike, the source gives them in different places.

Legend:
[1] = biological target: EcDERA (deoxyribose-5-phosphate aldolase); HSA = its T19S/G171A/V206I mutant (Escherichia coli, UniProt P0A6L0)
[2] = biological target: T1, CkPTA (phosphotransacetylase) (Clostridium kluyveri, UniProt A5N801); assay: acetyl-CoA formation; assay type: biochemical
T1 sequence (A5N801 1-333): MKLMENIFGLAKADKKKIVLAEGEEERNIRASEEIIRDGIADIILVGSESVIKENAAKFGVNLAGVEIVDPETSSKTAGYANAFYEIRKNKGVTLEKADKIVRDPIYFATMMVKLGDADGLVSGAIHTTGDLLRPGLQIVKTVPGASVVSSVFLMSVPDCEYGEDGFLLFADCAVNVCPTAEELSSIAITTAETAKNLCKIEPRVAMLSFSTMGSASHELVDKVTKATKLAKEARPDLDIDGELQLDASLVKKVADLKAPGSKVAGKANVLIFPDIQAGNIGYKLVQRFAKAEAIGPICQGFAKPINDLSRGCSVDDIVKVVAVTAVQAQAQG

Sequence of EcDERA (deoxyribose-5-phosphate aldolase); HSA = its T19S/G171A/V206I mutant (P0A6L0 whole entry T19S/G171A/V206I): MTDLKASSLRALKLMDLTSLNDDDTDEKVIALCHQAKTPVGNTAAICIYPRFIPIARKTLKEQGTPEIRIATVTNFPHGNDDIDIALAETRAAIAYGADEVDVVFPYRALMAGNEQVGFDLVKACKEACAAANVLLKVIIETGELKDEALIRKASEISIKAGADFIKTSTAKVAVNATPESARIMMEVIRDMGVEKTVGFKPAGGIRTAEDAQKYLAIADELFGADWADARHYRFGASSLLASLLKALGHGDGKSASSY

SMILES | acetyl-CoA formation [2] | further results
O=C[C@H](O)[C@H](O)COP(=O)(O)O [erythrose 4-phosphate] |  | product formation (H6P) ([1]; with glycolaldehyde): enzyme for the condensation of glycolaldehyde and E4P to H6P
O=CCO [glycolaldehyde] |  | product formation (H6P) ([1]; with erythrose 4-phosphate): deoxyribose-5-phosphate aldolase (EcDERA) showing the highest activity
CC(=O)OP(=O)(O)O [acetyl phosphate] | CkPTA then converted acetyl phosphate into acetyl-CoA as the output product | 
CC(=O)SCCNC(=O)CCNC(=O)[C@H](O)C(C)(C)COP(=O)(O)OP(=O)(O)OC[C@H]1O[C@@H](n2cnc3c(N)ncnc32)[C@H](O)[C@@H]1OP(=O)(O)O [acetyl-CoA] | CkPTA then converted acetyl phosphate into acetyl-CoA as the output product | 
